Results as given in publication PMC5793879 (Cancer cell, 2017).
Like-named read-outs stand apart in the source and are kept apart here. Bridge positions count the residues as written; N and C are the ends. Square brackets hold non-standard residues; d marks the D form. Peptide text beside a SMILES is read from it. S5 = C=CCCC[C@](C)(N)C(=O)O

How the values were obtained:
[1] = target: BAX trigger site (full-length BAX) (Homo sapiens, UniProt Q07812); assay type: binding; conditions: relative to BTSA1
[2] = tested on: isolated mitochondria from mouse liver; conditions: without addition of BAX
[3] = tested on: BAX KO MEF, DKO MEF, wild type MEF, H9c2 myocytes, 3T3 fibroblasts
MCL-1 = MCL-1 (Homo sapiens, UniProt Q07820); assay type: binding
MEF cell lines = assay: Viability assay of MEF cell lines; assay type: cell-based, mouse
BCL-XL = BCL-XL (Homo sapiens, UniProt Q07817); assay type: binding; conditions: BTSA1 at 50 μM
OCI-AML3 cells = assay: Caspase-3/7 activation assay; assay type: cell-based, human; conditions: co-treatment with BTSA1
BFL-1/A1 = target: T1, BFL-1/A1 (Homo sapiens, UniProt Q16548); assay type: binding; conditions: BTSA1 at 50 μM
T1 sequence (Q16548 1-151 limits assumed): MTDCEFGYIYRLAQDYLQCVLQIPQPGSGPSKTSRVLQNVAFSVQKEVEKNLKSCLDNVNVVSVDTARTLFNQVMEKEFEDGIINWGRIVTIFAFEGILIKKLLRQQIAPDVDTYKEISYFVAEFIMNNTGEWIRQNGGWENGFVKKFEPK

Sequence of MCL-1 (Q07820 170-327 limits assumed): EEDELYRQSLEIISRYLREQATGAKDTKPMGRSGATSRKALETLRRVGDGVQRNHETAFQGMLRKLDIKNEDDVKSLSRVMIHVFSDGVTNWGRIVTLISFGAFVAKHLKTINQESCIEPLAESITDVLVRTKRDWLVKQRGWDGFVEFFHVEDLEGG
Sequence of BCL-XL (Q07817 1-212 limits assumed): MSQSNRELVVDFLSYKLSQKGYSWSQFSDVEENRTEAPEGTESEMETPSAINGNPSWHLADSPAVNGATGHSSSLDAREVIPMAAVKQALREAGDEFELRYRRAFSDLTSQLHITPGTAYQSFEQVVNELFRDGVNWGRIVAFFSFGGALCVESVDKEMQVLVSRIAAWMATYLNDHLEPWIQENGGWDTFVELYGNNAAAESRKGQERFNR
Sequence of BAX trigger site (full-length BAX) (Q07812 whole entry): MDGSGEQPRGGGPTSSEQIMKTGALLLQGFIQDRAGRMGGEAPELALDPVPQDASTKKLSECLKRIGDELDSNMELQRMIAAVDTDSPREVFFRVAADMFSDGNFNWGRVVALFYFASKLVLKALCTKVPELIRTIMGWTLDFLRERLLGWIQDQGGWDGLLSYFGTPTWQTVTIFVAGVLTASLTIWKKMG

## CC1=NN(c2nc(-c3ccccc3)cs2)C(=O)C1=NNc1nccs1 [BTSA2]
[1]
  reduction in binding capacity to BAX: ~ 10 fold

## O=C1C(=NNc2nccs2)C(c2ccccc2)=NN1c1nc(-c2ccccc2)cs1 [BTSA1]
[2]
  cytochrome c release: no effect
[3]; BAX KO MEF and DKO MEF, 24 hr
  sensitivity to treatment, cells with no BAX expression: exhibit resistance
[3]; wild type MEF, H9c2 myocytes, 3T3 fibroblasts, doses giving complete cell death in AML cells
  sensitivity to treatment, cells that express BAX: still exhibit resistance
MCL-1
  competition of FITC-BIM SAHBA2 binding to MCL-1: no capacity to compete
MEF cell lines
  sensitivity of MEF cell lines: insensitive
BCL-XL
  competition of FITC-BIM SAHBA2 binding to BCL-XL: no capacity to compete

## OC(CN1CCNCC1)Cn1c2ccc(Br)cc2c2cc(Br)ccc21 (stereo not drawn) [reference compound]
OCI-AML3 cells
  inhibition of BTSA1-mediated apoptosis measured by caspase-3/7 activation: complete inhibition

## CC[C@H](C)[C@H](NC(=O)[C@H](Cc1c[nH]c2ccccc12)NC(=O)[C@@H](NC(=O)[C@H](CCC(=O)O)NC(C)=O)[C@@H](C)CC)C(=O)N[C@@H](C)C(=O)N[C@@H](CCC(N)=O)C(=O)N[C@@H](CCC(=O)O)C(=O)N[C@@H](CC(C)C)C(=O)N[C@@H](CCCNC(=N)N)C(=O)N[C@@]1(C)CCCC=CCCC[C@@](C)(C(=O)N[C@@H](Cc2ccccc2)C(=O)N[C@@H](CC(N)=O)C(=O)N[C@@H](C)C(=O)N[C@@H](Cc2ccc(O)cc2)C(=O)N[C@@H](Cc2ccc(O)cc2)C(=O)N[C@@H](C)C(N)=O)NC(=O)[C@H](CC(=O)O)NC(=O)CNC(=O)[C@H]([C@@H](C)CC)NC1=O [BIM SAHBA2, reference compound] (Ac-EIWIAQELR[S5]IGD[S5]FNAYYA-NH2; staple 10-14 (inferred))
MCL-1; BTSA1 at 50 μM
  competition of FITC-BIM SAHBA2 binding to MCL-1: effectively competed
BCL-XL
  competition of FITC-BIM SAHBA2 binding to BCL-XL: effectively competed
BFL-1/A1
  competition of FITC-BIM SAHBA2 binding to BFL-1/A1: effectively competed

## CC1(C)CCC(c2ccc(Cl)cc2)=C(CN2CCN(c3ccc(C(=O)NS(=O)(=O)c4ccc(N[C@H](CCN5CCOCC5)CSc5ccccc5)c(S(=O)(=O)C(F)(F)F)c4)cc3)CC2)C1 [Navitoclax, reference compound]
MEF cell lines; Mus musculus, MEF, read-out: IC50, viability
  IC50: 1 to 5 µM
